According to patent US20250136579A1, “SALTS AND FREE BASES OF BIFUNCTIONAL COMPOUND AND POLYMORPH FORMS THEREOF” (NURIX THERAPEUTICS, INC., priority 2023, published 2025):
Read-outs that look alike come from different tables or passages of the source.

Experiments:
[1] = acid (counterion) used in salt screen; cited from earlier work
[2] = water solubility, visual solubility estimation using pipet method; assay type: physicochemical; details: thermodynamic from solid
[3] = overnight slurry in solvent, NMR analysis of recovered solids; assay type: physicochemical
[4] = kinetic solubility at pH 7.4; assay type: physicochemical; details: pH 7.4, aqueous buffer, kinetic from dmso stock
Source text: (§1) The free base compound of Formula (I) was used as a starting material. The compound of Formula (I) (MW 806.973 g/mol) is a chimeric targeting molecule that has two ligands connected by a linker.

[5] = dynamic vapor sorption (DVS) analysis, TA Instruments Q5000, 5 to 95% RH; assay type: physicochemical
Procedure: For Fumarate Salt Form A, Dynamic vapor sorption (DVS) analysis was carried out using a TA Instruments Q5000 Dynamic Vapor Sorption analyser. The instrument was calibrated with standard weights and a sodium bromide standard for humidity. Approximately 10-25 mg of sample was loaded into a metal coated quartz pan for analysis. The sample was analysed at 25° C. with a maximum equilibration time of one hour in 10% relative humidity (RH) steps from 5 to 95% RH (adsorption cycle) and from 95 to 5% RH (desorption cycle). The movement from one step to the next occurred either after satisfying the equilibrium criterion of 0.01% weight change, or when the equilibrium criterion was not met after one hour. The percent weight change values were then calculated.

[6] = estimated solubility by adding test solvent in aliquots to weighed solid, visual inspection; assay type: physicochemical; details: thermodynamic from solid, read-out: Solubility
Procedure: Solubilities of the compound of Formula (I), free base, in a few solvents were estimated. The experiments were carried out by adding the test solvent in aliquots to weighed portions of solid. Whether dissolution had occurred was judged by visual inspection after addition of each solvent aliquot. Solubility numbers were calculated by dividing the weight of the sample by total amount of solvent used to dissolve the sample. The actual solubilities may be greater than the numbers calculated because of the use of solvent aliquots that were too large or because of slow dissolution rates. […] The solubility number is expressed as “greater than or equal to” if dissolution occurred on addition of the first solvent aliquot.
Solubilities of Fumarate Salt Form A are shown in Tables 8 and 9, in selected solvents and aqueous binary mixtures.
Solubilities of the compound of Formula (I), Fumarate Salt Form A, are shown in Tables 15 and 16, in selected solvents and aqueous binary mixtures.

[7] = pKa (base) of the free base compound of Formula (I); assay type: physicochemical
Source text: as §1

O=C(O)[C@H](O)[C@@H](O)[C@H](O)[C@H](O)CO [D-gluconic]
pKa [1]: 3.76

CN1CCN([C@@H]2CCCN(c3cnc(C(N)=O)c(Nc4ccc(C5CCN(CC6CCN(c7ccc(C(=O)N[C@H]8CCC(=O)NC8=O)nc7)CC6)CC5)cc4)n3)C2)C1=O.O=C(O)/C=C\C(=O)O [Maleate Salt Form A]
solubility [2]: < 300 µg/mL | 1H NMR, post-EtOH slurry ([3]; slurry stirred overnight in EtOH): Consistent with a 1:1 salt | 1H NMR, post-water slurry ([3]; slurry stirred overnight in water): Not consistent with 1:1 salt (0.4

CN1CCN([C@@H]2CCCN(c3cnc(C(N)=O)c(Nc4ccc(C5CCN(CC6CCN(c7ccc(C(=O)N[C@H]8CCC(=O)NC8=O)nc7)CC6)CC5)cc4)n3)C2)C1=O [free base compound of Formula (I)]
solubility kinetic [4]: 10 µM | DVS: weight gain up to 95% RH ([5]; 25° C.): approximately 7% | DVS: hygroscopicity ([5]; 25° C., 5 to 95% RH): moderately hygroscopic | Post-DVS XRPD ([5]; material after sorption/desorption cycle): unchanged | solubility ([6]; aqueous with cosolvent or surfactant or cyclodextrin, 1,4-dioxane/H2O (60/40), aw 1.0, at 60° C.): 2000 µg/mL | solubility ([6]; aqueous with cosolvent or surfactant or cyclodextrin, 1-pentanol/H2O (saturated) (80:20 - 2 phase system), at 60° C.): < 3000 µg/mL | solubility ([6]; aqueous with cosolvent or surfactant or cyclodextrin, 2-propanol/H2O (80/20), aw 0.9, at 60° C.): < 2000 µg/mL | solubility ([6]; aqueous with cosolvent or surfactant or cyclodextrin, acetone/H2O (70/30), aw 0.85, at 60° C.): < 2000 µg/mL | solubility ([6]; aqueous with cosolvent or surfactant or cyclodextrin, acetonitrile/H2O (45/55), aw 0.9, at 60° C.): < 2000 µg/mL | solubility ([6]; aqueous with cosolvent or surfactant or cyclodextrin, ethanol/H2O (70/30), aw 0.8, at 60° C.): < 2000 µg/mL | solubility ([6]; aqueous with cosolvent or surfactant or cyclodextrin, methanol/H2O (50/50), aw 0.75, at 60° C.): < 2000 µg/mL | solubility ([6]; aqueous with cosolvent or surfactant or cyclodextrin, tetrahydrofuran/H2O (80/20), aw 1, at RT): 5000 µg/mL | solubility ([6]; organic solvent or mixture, 1,2-dichloroethane, at 45° C.): 2000 µg/mL | solubility ([6]; organic solvent or mixture, 1,4-dioxane, solubility without temperature): 6000 µg/mL | solubility ([6]; organic solvent or mixture, 2-methyltetrahydrofuran (2-MeTHF), solubility without temperature): < 1000 µg/mL | solubility ([6]; organic solvent or mixture, 2-propanol (2-PrOH), solubility without temperature): < 1000 µg/mL | solubility ([6]; organic solvent or mixture, acetone, solubility without temperature): < 1000 µg/mL | solubility ([6]; organic solvent or mixture, acetonitrile (ACN), solubility without temperature): < 1000 µg/mL | solubility ([6]; organic solvent or mixture, anisole, at 60° C.): < 1000 µg/mL | solubility ([6]; organic solvent or mixture, cyclohexane, at 60° C.): < 2000 µg/mL | solubility ([6]; organic solvent or mixture, dichloromethane (DCM), solubility without temperature): 17000 µg/mL | solubility ([6]; organic solvent or mixture, diethyl ether (Et2O), solubility without temperature): < 1000 µg/mL | solubility ([6]; organic solvent or mixture, dimethylformamide (DMF), solubility without temperature): 21000 µg/mL | solubility ([6]; organic solvent or mixture, dimethylsulfoxide (DMSO), solubility without temperature): 9000 µg/mL | solubility ([6]; organic solvent or mixture, ethanol (EtOH), solubility without temperature): < 1000 µg/mL | solubility ([6]; organic solvent or mixture, ethyl acetate (EtOAc), solubility without temperature): < 1000 µg/mL | solubility ([6]; organic solvent or mixture, heptane, at 60° C.): < 2000 µg/mL | solubility ([6]; organic solvent or mixture, methanol (MeOH), solubility without temperature): < 1000 µg/mL | solubility ([6]; organic solvent or mixture, methyl acetate (MeOAc), at 60° C.): < 1000 µg/mL | solubility ([6]; organic solvent or mixture, methyl ethyl ketone (MEK), solubility without temperature): < 1000 µg/mL | solubility ([6]; organic solvent or mixture, methyl tert-butyl ether (MTBE), at 60° C.): < 1000 µg/mL | solubility ([6]; organic solvent or mixture, tetrahydrofuran (THF), solubility without temperature): 9000 µg/mL | solubility ([6]; organic solvent or mixture, toluene, at 60° C.): < 2000 µg/mL | solubility ([6]; water, solubility without temperature): < 1000 µg/mL | pKa [7]: ~6.5

O=C(O)CNC(=O)c1ccccc1 [hippuric]
pKa [1]: 3.55
